Reference: ChEMBL document CHEMBL1201862, “PubChem BioAssay data set” (2004)
Calls of active or inactive are those of the source.

Assays:
Beta-galactosidase [1] = target: T1, Beta-galactosidase (Escherichia coli, UniProt Q8VNN2); assay: PubChem AID 485352; assay type: functional
Beta-galactosidase [2] = target: T1, Beta-galactosidase; assay: Dose response counterscreen for EBI2 assay utilizing the enzyme, b-galactosidase.; assay type: functional
INS1 = assay: beta cell apoptosis inhibitors, cytokine rescue, dose response, luminescence, retest (AID 449756); assay type: functional, cell-based; details: Rattus norvegicus;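 also: cell death triggered by IL-1 beta plus TNF-alpha plus IFN-gamma mixture; protective hits raise ATP signal compared with cytokine alone wells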
[3] = target: T2, Type-1 angiotensin II receptor (Homo sapiens, UniProt P30556); assay: AT1 receptor antagonists, dose response, selectivity assay for APJ receptor antagonist project, cell-based, uHTS hits (AID 463214); assay type: functional;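 also: antagonist potency against angiotensin II stimulated AT1 response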
T2 sequence (P30556 whole entry): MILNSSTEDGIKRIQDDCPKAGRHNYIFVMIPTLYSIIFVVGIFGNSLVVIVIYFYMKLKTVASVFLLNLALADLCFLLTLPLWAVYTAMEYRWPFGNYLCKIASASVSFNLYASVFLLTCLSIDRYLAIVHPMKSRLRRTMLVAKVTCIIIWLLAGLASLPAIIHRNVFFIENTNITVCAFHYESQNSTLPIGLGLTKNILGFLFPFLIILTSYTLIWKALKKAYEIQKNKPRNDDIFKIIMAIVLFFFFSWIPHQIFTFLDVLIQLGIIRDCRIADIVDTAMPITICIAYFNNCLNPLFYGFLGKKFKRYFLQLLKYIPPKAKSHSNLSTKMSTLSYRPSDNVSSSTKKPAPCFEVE

Nonstructural protein 1 = Nonstructural protein 1 (Influenza A virus, UniProt Q194T2); assay type: functional, Influenza A virus (A/California/07/2009(H1N1))
Chain of Nonstructural protein 1 (Q194T2 whole entry): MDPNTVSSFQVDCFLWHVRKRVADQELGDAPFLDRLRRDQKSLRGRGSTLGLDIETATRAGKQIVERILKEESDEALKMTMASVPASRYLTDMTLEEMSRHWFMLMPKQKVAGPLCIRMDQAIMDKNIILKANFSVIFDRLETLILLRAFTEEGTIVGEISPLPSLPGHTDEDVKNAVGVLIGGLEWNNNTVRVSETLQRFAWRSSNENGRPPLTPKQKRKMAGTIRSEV

Vero [4] = assay: cells; assay type: functional; details: Chlorocebus sabaeus
[5] = Luminescence Cell-Based Dose Response HTS to Identify Inhibitors of 5'UTR Stem-Loop Driven Prion Protein mRNA Translation in H4 Neuroglioblastoma Cells. [Related pubchem assays: 1827 (Project Summary), 1813 (Primary HTS)]; assay type: functional
HEK293 [6] = assay: inhibitors of LMP1-driven NF-kB reporter, dose response, cell-based, HEK293, luciferase, cherry-pick (AID 588343); assay type: functional; details: Homo sapiens
Vero [7] = assay: cells; assay type: functional, cell-based; details: Chlorocebus sabaeus
[8] = inhibitors of firefly luciferase expression or activity, dose response, H4 neuroglioma cells, luminescence (AID 1990); assay type: functional, cell-based
[9] = inhibitors of SNCA 5'UTR-driven reporter translation, confirmation, H4 neuroglioma cells, luminescence (AID 1988); assay type: functional, cell-based
[10] = target: 5-hydroxytryptamine receptor 5A (Homo sapiens, UniProt P47898); assay: Counterscreen for agonists of OPRM1-OPRD1 heterodimerization: luminescence-based cell-based high throughput dose response assay to identify agonists of 5-hydroxytryptamine (serotonin) 5A receptor (HTR5A). [Related pubchem assays (depositor defined):AID504326, AID504355, AID504692, AID504904, AID504905]; assay type: functional
Chain of 5-hydroxytryptamine receptor 5A (P47898 whole entry): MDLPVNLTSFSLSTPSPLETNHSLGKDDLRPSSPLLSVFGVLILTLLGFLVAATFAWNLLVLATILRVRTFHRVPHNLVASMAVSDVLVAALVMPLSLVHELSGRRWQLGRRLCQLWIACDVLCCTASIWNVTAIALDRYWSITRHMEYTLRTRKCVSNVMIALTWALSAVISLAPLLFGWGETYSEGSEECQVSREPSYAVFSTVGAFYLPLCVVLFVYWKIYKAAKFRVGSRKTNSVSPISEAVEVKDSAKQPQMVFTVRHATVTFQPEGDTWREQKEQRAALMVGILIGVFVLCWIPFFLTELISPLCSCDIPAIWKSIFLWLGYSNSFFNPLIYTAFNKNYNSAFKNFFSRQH

[11] = target: Delta-type opioid receptor (Homo sapiens, UniProt P41143); assay: Counterscreen for agonists of heterodimerization of the mu 1 (OPRM1) and delta 1 (OPRD1) opioid receptors: Luminescence-based cell-based high throughput dose response assay to identify agonists of OPRD1 homodimerization. [Related pubchem assays (depositor defined):AID504326, AID504355, AID504692, AID504904, AID504905]; assay type: functional
Chain of Delta-type opioid receptor (P41143 whole entry): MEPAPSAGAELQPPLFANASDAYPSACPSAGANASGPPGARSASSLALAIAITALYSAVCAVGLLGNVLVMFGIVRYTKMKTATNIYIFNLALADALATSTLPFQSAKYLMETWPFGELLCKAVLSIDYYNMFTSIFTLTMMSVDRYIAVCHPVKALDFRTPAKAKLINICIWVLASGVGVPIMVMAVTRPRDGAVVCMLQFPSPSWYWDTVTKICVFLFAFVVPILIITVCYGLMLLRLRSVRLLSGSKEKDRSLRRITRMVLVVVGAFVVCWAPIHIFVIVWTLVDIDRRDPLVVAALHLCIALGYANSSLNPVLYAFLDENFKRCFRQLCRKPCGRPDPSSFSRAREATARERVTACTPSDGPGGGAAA

Mu-type opioid receptor = Mu-type opioid receptor (Homo sapiens, UniProt P35372); assay: Counterscreen for agonists of heterodimerization of the mu 1 (OPRM1) and delta 1 (OPRD1) opioid receptors: Luminescence-based cell-based high throughput dose response assay to identify agonists of OPRM1 homodimerization.; assay type: functional;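 also: U2OS cells expressing OPRM1 and beta-arrestin as split beta-galactosidase partners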
Chain of Mu-type opioid receptor (P35372 whole entry): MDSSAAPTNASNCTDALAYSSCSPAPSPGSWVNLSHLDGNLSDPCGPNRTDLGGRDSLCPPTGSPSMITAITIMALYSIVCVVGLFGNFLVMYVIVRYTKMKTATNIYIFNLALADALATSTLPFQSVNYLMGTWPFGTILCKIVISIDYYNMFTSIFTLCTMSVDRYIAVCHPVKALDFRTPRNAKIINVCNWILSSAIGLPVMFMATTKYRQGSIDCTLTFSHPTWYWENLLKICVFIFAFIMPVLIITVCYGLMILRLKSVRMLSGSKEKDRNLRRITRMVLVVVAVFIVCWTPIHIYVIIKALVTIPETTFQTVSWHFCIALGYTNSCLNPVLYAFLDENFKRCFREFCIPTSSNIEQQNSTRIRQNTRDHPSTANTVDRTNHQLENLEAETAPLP

Tumor necrosis factor = Tumor necrosis factor (Homo sapiens, UniProt P01375); assay: TNFa-triggered NF-kB activation inhibitors, SAR follow-up, cell-based, revised (AID 2337); assay type: functional
Chain of Tumor necrosis factor (P01375 whole entry): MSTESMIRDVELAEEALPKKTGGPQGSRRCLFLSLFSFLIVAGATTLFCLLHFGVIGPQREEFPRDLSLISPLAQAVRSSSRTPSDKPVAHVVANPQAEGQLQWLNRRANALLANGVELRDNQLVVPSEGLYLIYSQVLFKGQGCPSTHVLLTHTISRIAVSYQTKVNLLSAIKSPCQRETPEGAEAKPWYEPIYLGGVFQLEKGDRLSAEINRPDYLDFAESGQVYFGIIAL

HEK293 [12] = assay: cells; details: Homo sapiens
[13] = target: Nucleotide-binding oligomerization domain-containing protein 2 (Homo sapiens, UniProt Q9HC29); assay: PubChem AID 2334; assay type: functional
Chain of Nucleotide-binding oligomerization domain-containing protein 2 (Q9HC29 whole entry, the tested form may be a part): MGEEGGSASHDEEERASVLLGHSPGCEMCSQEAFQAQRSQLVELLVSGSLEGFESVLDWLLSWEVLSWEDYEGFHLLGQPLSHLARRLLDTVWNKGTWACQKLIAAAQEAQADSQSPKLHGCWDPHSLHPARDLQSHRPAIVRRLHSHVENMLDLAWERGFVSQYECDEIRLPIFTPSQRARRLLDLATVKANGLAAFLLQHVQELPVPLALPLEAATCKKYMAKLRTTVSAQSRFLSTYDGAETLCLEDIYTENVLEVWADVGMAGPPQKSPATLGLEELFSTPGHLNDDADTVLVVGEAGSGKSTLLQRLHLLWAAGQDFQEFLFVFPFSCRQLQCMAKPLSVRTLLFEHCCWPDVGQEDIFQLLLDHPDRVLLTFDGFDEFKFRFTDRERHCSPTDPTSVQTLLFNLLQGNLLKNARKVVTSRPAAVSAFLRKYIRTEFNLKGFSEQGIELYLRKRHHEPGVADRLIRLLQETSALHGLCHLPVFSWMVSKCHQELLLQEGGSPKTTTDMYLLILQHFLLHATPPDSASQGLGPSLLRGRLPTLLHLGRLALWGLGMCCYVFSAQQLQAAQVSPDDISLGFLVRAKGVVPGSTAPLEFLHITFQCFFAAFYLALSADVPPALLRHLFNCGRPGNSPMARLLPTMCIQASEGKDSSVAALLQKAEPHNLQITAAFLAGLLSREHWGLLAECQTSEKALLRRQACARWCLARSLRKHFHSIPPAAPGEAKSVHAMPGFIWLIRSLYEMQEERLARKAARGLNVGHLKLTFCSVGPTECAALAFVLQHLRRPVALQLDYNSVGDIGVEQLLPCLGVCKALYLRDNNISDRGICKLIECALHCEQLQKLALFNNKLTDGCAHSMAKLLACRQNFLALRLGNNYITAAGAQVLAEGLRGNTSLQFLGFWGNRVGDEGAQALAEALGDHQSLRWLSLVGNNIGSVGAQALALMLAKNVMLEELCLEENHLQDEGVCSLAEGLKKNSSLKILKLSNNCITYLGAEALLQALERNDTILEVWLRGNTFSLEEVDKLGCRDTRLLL

[14] = Luminescence Cell-Based Dose Retest to Confirm Inhibitors of Cancer Stem Cells. [Related pubchem assays (depositor defined):AID2717, AID2721]; assay type: functional; details: Homo sapiens
[15] = target: T3, Nucleotide-binding oligomerization domain-containing protein 1 (Homo sapiens, UniProt Q9Y239); assay: NOD1 signaling inhibitors, SAR follow-up, revised (AID 2333); assay type: functional
T3 sequence (Q9Y239 whole entry): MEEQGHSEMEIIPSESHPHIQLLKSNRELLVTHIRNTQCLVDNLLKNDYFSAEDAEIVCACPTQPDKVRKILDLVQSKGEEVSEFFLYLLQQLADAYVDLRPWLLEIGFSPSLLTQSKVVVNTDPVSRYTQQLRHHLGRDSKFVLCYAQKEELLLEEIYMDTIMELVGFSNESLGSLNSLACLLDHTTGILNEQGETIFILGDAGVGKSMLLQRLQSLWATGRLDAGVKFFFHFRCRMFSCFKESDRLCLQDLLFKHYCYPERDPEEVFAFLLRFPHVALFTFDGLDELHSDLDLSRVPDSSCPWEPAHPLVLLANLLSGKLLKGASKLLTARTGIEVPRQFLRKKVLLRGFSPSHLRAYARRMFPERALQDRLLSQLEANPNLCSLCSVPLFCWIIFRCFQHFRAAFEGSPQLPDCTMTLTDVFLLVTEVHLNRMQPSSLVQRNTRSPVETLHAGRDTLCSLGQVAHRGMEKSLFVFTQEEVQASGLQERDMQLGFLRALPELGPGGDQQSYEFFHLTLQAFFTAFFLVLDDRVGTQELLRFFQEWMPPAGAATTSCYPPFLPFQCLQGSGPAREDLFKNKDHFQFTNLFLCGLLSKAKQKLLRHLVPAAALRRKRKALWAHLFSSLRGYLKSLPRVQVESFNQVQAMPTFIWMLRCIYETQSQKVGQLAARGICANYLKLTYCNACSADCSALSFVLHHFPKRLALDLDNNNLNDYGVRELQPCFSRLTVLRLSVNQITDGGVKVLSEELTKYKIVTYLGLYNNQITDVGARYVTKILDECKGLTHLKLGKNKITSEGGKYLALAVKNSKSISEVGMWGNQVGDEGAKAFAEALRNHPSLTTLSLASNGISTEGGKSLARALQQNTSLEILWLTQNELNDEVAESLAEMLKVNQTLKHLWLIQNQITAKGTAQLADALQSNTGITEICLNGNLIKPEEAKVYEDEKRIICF

T1 sequence (Q8VNN2 whole entry): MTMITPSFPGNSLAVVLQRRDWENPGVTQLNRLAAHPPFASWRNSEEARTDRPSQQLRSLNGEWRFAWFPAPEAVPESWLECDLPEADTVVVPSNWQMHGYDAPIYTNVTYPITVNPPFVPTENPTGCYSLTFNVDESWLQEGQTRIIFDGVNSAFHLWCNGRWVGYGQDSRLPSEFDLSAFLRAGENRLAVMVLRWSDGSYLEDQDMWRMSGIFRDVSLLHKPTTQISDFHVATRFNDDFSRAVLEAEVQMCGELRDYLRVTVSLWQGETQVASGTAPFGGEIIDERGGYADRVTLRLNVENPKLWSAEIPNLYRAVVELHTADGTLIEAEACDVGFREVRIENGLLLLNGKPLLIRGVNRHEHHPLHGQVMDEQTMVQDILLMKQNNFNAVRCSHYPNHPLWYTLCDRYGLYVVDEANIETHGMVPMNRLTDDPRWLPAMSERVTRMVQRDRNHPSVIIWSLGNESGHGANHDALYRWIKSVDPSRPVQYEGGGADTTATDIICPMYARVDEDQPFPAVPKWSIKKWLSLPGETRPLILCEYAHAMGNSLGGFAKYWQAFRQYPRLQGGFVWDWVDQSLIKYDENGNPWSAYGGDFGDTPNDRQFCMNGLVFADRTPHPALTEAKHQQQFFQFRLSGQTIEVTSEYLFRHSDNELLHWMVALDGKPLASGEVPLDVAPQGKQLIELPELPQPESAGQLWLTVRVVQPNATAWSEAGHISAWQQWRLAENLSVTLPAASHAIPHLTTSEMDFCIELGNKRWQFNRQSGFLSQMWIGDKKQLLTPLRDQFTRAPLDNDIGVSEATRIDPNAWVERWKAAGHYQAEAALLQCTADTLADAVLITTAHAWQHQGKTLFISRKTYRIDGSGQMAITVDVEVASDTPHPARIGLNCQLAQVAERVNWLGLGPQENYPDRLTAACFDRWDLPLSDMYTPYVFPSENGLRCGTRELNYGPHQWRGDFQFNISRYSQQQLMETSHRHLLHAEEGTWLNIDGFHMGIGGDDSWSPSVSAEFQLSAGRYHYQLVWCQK

C/C(=N/NC(=O)c1ccc(C(C)(C)C)cc1)c1ccccn1
EC50 (Beta-galactosidase [1]): > 40 µM (inactive) | IC50 (Beta-galactosidase [2]): > 80 µM (inactive) | AC50 (INS1): 0.497 µM (active) | IC50 [3]: 3.48 µM (active) | IC50 (Nonstructural protein 1): 6.97 µM (active) | CC50 (Vero [4]): 2.62 µM (active) | EC50 [5]: 0.585 µM (active) | AC50 (HEK293 [6]): 1.31 µM (active) | IC50 (Vero [7]): > 25 µM (active) | EC50 [8]: 3.75 µM (active) | EC50 [9]: 0.455 µM (active)

CSCCCNC(=O)c1ccc(OC2CCN(CCc3ccccc3)CC2)cc1
EC50 [10]: > 92.5 µM (inactive) | EC50 [11]: > 92.5 µM (inactive) | EC50 (Mu-type opioid receptor): > 92.5 µM (inactive)

COC(=O)c1c(NC(=O)c2ccccc2)sc2c1CC(C)(C)OC2
IC50 (Tumor necrosis factor): > 20 µM (inactive) | IC50 (HEK293 [12]): > 20 µM (inactive) | IC50 [13]: > 20 µM (inactive) | AC50 [14]: 9.23 µM (active) | IC50 [15]: > 20 µM (inactive)
